Measurements published in publication PMC10823468, “Design, Synthesis, and Evaluation of New 1H-Benzo[d]imidazole Based PqsR Inhibitors as Adjuvant Therapy for Pseudomonas aeruginosa Infections” (Journal of Medicinal Chemistry, 2024).
Where two headings read alike, the source gives them in different places.

Tests used:
[1] = test system: GFP-labeled P. aeruginosa PAO1-L biofilms; assay: Biofilm viability assay, method 2 (tobramycin, GFP-labeled biofilm, PI); format: cell-based, Pseudomonas aeruginosa
Method: Biofilms of PAO1-L were also tested for the impact of 6f on the potentiation of tobramycin activity (method 2).
Figure 7 Effect of 6f and tobramycin on GFP-labeled P. aeruginosa PAO1-L biofilms. (A) Representative CLSM images: (a) Untreated biofilm; (b) biofilm grown with 6f at 1 μM for 16 h; (c) biofilm treated with 100 μg/mL tobramycin for 2 or 6 h after 16 h of growth; (d) biofilm grown with 1 μM 6f and treated with (6f 1 μM), tobramycin (100 μg/mL) for 2 or 6 h after 16 h of growth. Dead cells and extracellular DNA were stained red with propidium iodide (PI). Three-dimensional (3D) sections and cross sections are shown. Scale bar represents 100 μm. (B) Quantitative analysis of biofilm biomass at different conditions of treatment compared with a solvent vehicle control.
Biofilms were cultivated on borosilicate glass coverslips in Petri dishes. P. aeruginosa strains, […], was transformed with plasmid pMMG, which constitutively expresses GFP from the Ptac promoter.[50] The tagged strain was grown at 37 °C, for 16 h, in 2 mL of RPMI-1640 (Lonza, Slough, UK), supplemented with 20 mM D-glucose (Sigma–Aldrich, Dorset, UK) and 2 μM FeCl3 (Sigma–Aldrich, Dorset, UK). Cultures were diluted 1:100 in fresh medium and allowed to grow for a further 4 h, or until an OD600 of 0.5 was reached. The mid logarithmic cultures were diluted to an OD600 of 0.01 in 25 mL of RPMI, supplemented with glucose and FeCl3, and inoculated into Petri dishes containing UV sterilized borosilicate glass coverslips (22 mm × 22 mm, thickness no1) (VWR, Lutterworth, UK). Bacterial cells were seeded at 37 ◦C under static conditions for 1.5 h, and compound 6f was supplemented to the 6f treated samples (6f, 6f + Tob samples) at a concentration of 1 μM before dishes were transferred to a shaker at 60 rpm and 37 ◦C for 16 h to form mature biofilms. Tobramycin and propidium iodide were added to the 16 h old cultures at concentrations of 100 μg/mL and 2 μM, respectively, followed by further incubation for 2 or 6 h. […]

[2] = test system: pyocyanin production in P. aeruginosa; assay: Pyocyanin quantification; format: cell-based, Pseudomonas aeruginosa; settings: for pyocyanin production: 6f 200 nM
Method: This assay was extended further to investigate the effect of 6f on pyocyanin production in different P. aeruginosa at 6f concentration of 200 nM (Figure 5b).
The experiment was performed following a published protocol with minor modifications. Strains were cultured into 5 mL of fresh medium overnight. […] Cells were centrifuged at 10 000 RCF for 10 min (Allegra 64R centrifuge, Beckman Coulter, High Wycombe, UK), and the supernatant was transferred to 15 mL falcon tubes with a HSW 10 mL Soft-Ject Syringe and a […] Sartorius syringe-driven filter (Fisher Brand, Loughborough, UK). Pyocyanin pigment was extracted into chloroform by mixing 7.5 mL of supernatant with 4.5 mL of chloroform. Pyocyanin was further extracted into 1.5 mL of 0.2 M HCL, which gave a pink/red solution, and the absorbance was measured at 520 nm.[47]

[3] = design: method as in PMID 33073099; settings: rats; intratracheal; coarse suspension; cited from earlier work
[4] = test system: PqsR (PqsR-controlled pqsA promoter, PAO1-L mCTX::PpqsA-lux); assay: Bioluminescent reporter assay, PAO1-L mCTX::PpqsA-lux; format: cell-based, Pseudomonas aeruginosa; settings: Pseudomonas aeruginosa, PAO1, read-out: IC50 (μM) PAO1-L mCTX::PpqsA-lux
Method: An extensive SAR was performed on 6a to investigate the role of substitutions around various positions of the benzimidazole ring (groups R1–R3) as well as the aromatic tail (groups R4–R5) to fine-tune the potency of this series (6a–u) (Table 2). The activity of these analogues to inhibit the pqs QS system was evaluated in the PAO1-L and PA14 strains (that belong to the two major P. aeruginosa genomic lineages), both harboring a chromosomally integrated mCTX::PpqsA-lux transcriptional fusion to report for the activity of pqs system. Successful pharmacological blocking of AQ signal reception at the level of PqsR leads to a reduced transcription of the pqsA-lux genes and ultimately reduction in the luminescence readout.
Strains PA14 mCTX::PpqsA-lux and PAO1-L mCTX::PpqsA-lux were used to detect PqsR-controlled activation of the pqsA promoter, as previously described,[45] and the assay was performed according to a published method.[46] For initial screening, the compounds were tested at a concentration of 10 μM, which was prepared from a 10 mM stock, in DMSO.

[5] = design: method as in PMID 33073099; settings: rat microsomes; cited from earlier work
[6] = design: method as in PMID 33073099; settings: human microsomes; cited from earlier work

With `CC(C)n1c(NCC(O)COc2ccc(CC#N)cc2)nc2ccc(Cl)cc21` (centres unmarked) [Compound 6f, 2-(4-(3-((6-Chloro-1-isopropyl-1H-benzo[d]imidazol-2-yl)amino)-2-hydroxypropoxy)phenyl) Acetonitrile] as the compound, how does the “biofilm killing, combination with tobramycin” value ([1]; 6f 1 μM + tobramycin 100 μg/mL, 2 and 6 h of incubation) read?
The value was “enhanced the killing”.

And the “live cells in biofilm, combination with tobramycin” value ([1]; 6f 1 μM + tobramycin 100 μg/mL, 6 h)?
Its value is “no live cells present”.

And the “viability of preformed biofilms, 6f on its own” value ([1]; PAO1-L biofilm, 6f 1 μM)?
The value was “did not impact on the viability”.

And the pyocyanin production ([2]; IPCD1451)?
Its pyocyanin production is “nonsignificant inhibition”.

What about the pyocyanin production ([2]; all strains except IPCD1451) of the same compound?
Its pyocyanin production is “inhibited pyocyanin production”.

What about the “inhibition of pyocyanin production” value ([2]; PAO1-L, concentration three times the IC50, relative to DMSO) of the same compound?
Its value is roughly 80%.

What about the “clearance from lung to plasma” value [3] of the same compound?
Its value is “rapid clearance”.

What about the systemic clearance [3] of the same compound?
The systemic clearance was “fast systemic clearance”.

What about the IC50 [4] of the same compound?
Its IC50 is 0.07 ± 0.02 µM.

And the half-life [5]?
Its half-life is “relatively short”.

What about the half-life [6] of the same compound?
Its half-life is “relatively short”.
